In general, IC50 refers to the concentration at which inhibition is half-maximal. A low value points to higher potency.

C-Raf FL, sequence (P04049 whole entry Y340E/Y341E): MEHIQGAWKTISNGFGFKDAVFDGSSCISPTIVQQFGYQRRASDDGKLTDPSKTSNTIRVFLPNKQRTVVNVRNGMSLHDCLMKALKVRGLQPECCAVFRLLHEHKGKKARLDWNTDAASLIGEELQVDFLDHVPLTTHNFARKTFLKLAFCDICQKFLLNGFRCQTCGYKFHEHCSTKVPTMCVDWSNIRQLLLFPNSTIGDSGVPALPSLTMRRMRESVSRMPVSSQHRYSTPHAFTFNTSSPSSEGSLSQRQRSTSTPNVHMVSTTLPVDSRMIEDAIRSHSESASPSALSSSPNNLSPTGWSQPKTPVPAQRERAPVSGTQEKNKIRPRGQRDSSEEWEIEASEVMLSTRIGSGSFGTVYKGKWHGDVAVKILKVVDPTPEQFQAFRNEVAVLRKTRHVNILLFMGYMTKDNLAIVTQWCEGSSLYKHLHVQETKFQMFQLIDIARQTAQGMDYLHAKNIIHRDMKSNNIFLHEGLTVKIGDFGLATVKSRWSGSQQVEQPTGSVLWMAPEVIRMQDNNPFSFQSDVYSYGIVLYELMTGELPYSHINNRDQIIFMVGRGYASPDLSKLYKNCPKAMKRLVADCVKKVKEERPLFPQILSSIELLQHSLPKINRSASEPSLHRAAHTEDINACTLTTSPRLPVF
C-Raf FL, sequence (P63104 whole entry partner): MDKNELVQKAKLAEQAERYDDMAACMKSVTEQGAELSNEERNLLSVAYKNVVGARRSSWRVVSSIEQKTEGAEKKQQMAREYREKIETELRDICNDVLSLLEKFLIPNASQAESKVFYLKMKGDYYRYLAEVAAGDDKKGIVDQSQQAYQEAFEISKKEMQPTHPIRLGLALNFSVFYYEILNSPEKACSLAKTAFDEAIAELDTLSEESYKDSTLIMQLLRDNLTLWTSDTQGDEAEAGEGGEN

The target of the assay is C-Raf FL (Homo sapiens (Human), UniProt P04049, Y340E/Y341E). The assay can be described thus: In vitro Raf activity determination (Alpha Screen, phospho-MEK), C-Raf FL (full length, Y340E/Y341E). Type of assay: biochemical. As to conditions: ATP 1 μM; 60 min pre-incubation; 1 hour reaction; column head does not say FL or TR. The text has this:
The activity of a compound according to the present invention can be assessed by well-known in vitro & in vivo methods. Raf inhibition data provided herein was obtained using the following procedures.
Sf9 cells co-expressing both proteins were lysed and subjected to immobilized nickel chromatography and eluted with Imidazole. A second column (StrepII binding column) was used and eluted with desthiobiotin. Protein Tags were removed using Prescission enzyme and the protein was further purified using a flowthrough step to remove tags.
C-Raf TR refers to a truncated C-Raf protein, a Δ1-324 deletion mutant. C-Raf FL refers to the full-length C-Raf protein.
Full length MEK1 with an inactivating K97R ATP binding site mutation is utilized as a RAF substrate. The MEK1 cDNA was subcloned with an N-terminal (his)6 tag into a vector for E. Coli expression. The MEK1 substrate was purified from E. Coli lysate by nickel affinity chromatography followed by anion exchange. The final MEK1 preparation was biotinylated (Pierce EZ-Link Sulfo-NHS-LC-Biotin) and concentrated.
Assay protocol: Raf and biotinylated Mek (kinase dead) were combined at 2× final concentrations in assay buffer (50 mM Tris, pH 7.5, 15 mM MgCl2, 0.01% BSA and 1 mM DTT) and dispensed […] per well in assay plates (Greiner white 384 well assay plates #781207) containing […] of 40× of a Raf kinase inhibitor test compound diluted in 100% DMSO. The plate was incubated for 60 minutes at room temperature. […] The reactions were stopped and the phosphorylated product was measured using a rabbit anti-p-MEK (Cell Signaling, #9121) antibody and the Alpha Screen IgG (ProteinA) detection Kit (PerkinElmer #6760617R), by the addition of […] to the well of a mixture of the antibody (1:2000 dilution) and detection beads (1:2000 dilution of both beads) in Stop/bead buffer (25 mM EDTA, 50 mM Tris, pH 7.5, 0.01% Tween20). The additions were carried out under dark conditions to protect the detection beads from light. A lid was placed on top of the plate and incubated for 1 hour at room temperature, after which the luminescence was read on a PerkinElmer Envision instrument. The concentration of each compound for 50% inhibition (IC50) was calculated by non-linear regression using XL Fit data analysis software.
As to `Cc1ccc(NC(=O)c2ccnc(C3(C(F)(F)F)CC3)c2)cc1-c1cc(OCCO)nc(C2CCOCC2)c1` [Example 259, N-(3-(2-(2-hydroxyethoxy)-6-(tetrahydro-2H-pyran-4-yl)pyridin-4-yl)-4-methylphenyl)-2-(1-(trifluoromethyl)cyclopropyl) isonicotinamide], the IC50 turned out to be 0.3 nM.

In turn, `Cc1ccc(NC(=O)c2ccnc(C(C)(C)C#N)c2)cc1-c1cc(NCCO)nc(C2CCOCC2)c1` [Example 175, 2-(2-cyanopropan-2-yl)-N-(3-(2-((2-hydroxyethyl)amino)-6-(tetrahydro-2H-pyran-4-yl)pyridin-4-yl)-4-methylphenyl) isonicotinamide] registered an IC50 of 0.83 nM. This IC50 is about 2.8-fold higher than that of the molecule before.

On to `Cc1ccc(NC(=O)c2cnnc(C(F)(F)F)c2)cc1-c1cc(OCCO)nc(C2(CF)CCOCC2)c1` [Example 212, N-(3-(2-(4-(fluoromethyl)tetrahydro-2H-pyran-4-yl)-6-(2-hydroxyethoxy)pyridin-4-yl)-4-methylphenyl)-6-(trifluoromethyl) pyridazine-4-carboxamide], for which the IC50 amounted to 0.08 nM.

`CCOc1nnc(-c2cc(NC(=O)c3cccc(C(F)(F)F)c3)cnc2C)cc1C1CCOCC1` [Example 234, N-(5-(6-ethoxy-5-(tetrahydro-2H-pyran-4-yl)pyridazin-3-yl)-6-methylpyridin-3-yl)-3-(trifluoromethyl) benzamide] yielded an IC50 of 0.08 nM.

The molecule `Cc1ccc(NC(=O)c2ccnc(C(F)(F)F)c2)cc1-c1cc(C2CCOCC2)c(N(C)CCO)nn1` [Example 308] registered an IC50 of 0.5 nM.

For `Cc1ncc(NC(=O)c2ccc(CN)c(C(F)(F)F)c2)cc1-c1cc(C2COC2)c2nccn2n1` [Example 10, 4-(aminomethyl)-N-(6-methyl-5-(8-(oxetan-3-yl)imidazo[1,2-b]pyridazin-6-yl)pyridin-3-yl)-3-(trifluoromethyl)benzamide], the IC50 stood at 2 nM.

Turning to `CCOc1ncc(-c2cc(NC(=O)c3ccnc(C(C)(C)C#N)c3)ccc2C)cc1C1(O)CCOC1` (centres unmarked) [Example 293, 2-(2-cyanopropan-2-yl)-N-(3-(6-ethoxy-5-(3-hydroxytetrahydro-furan-3-yl)pyridin-3-yl)-4-methylphenyl) isonicotinamide], the IC50 came out at 2 nM.

In the case of `Cc1ncc(NC(=O)c2ccnc(C(F)(F)F)c2)cc1-c1cc(OCCO)nc(C2(F)COC2)c1` [Example 51, N-(2′-(3-fluorooxetan-3-yl)-6′-(2-hydroxyethoxy)-2-methyl-[3,4′-bipyridin]-5-yl)-2-(trifluoromethyl)isonicotin-amide], the IC50 is 2.79 nM.

Take `CCOc1ncc(-c2cc(NC(=O)c3ccnc(C(C)(C)F)c3)cnc2C)cc1C1(C#N)CCOC1` (centres unmarked) [Example 170, N-(5′-(3-cyanotetrahydrofuran-3-yl)-6′-ethoxy-2-methyl-[3,3′-bipyridin]-5-yl)-2-(2-fluoropropan-2-yl) isonicotinamide]: half-maximal inhibition (IC50) was put at 2 nM. The IC50 values of the last two molecules are within 1.5-fold of each other.

On to `Cc1ccc(NC(=O)c2ccnc(C(F)(F)F)c2)cc1-c1cc(OCCO)nc(C2(C)CCOCC2)c1` [Example 205, N-(3-(2-(2-hydroxyethoxy)-6-(4-methyltetrahydro-2H-pyran-4-yl)pyridin-4-yl)-4-methylphenyl)-2-(trifluoromethyl) isonicotinamide], for which the half-inhibitory concentration (IC50) turned out to be 0.4 nM.

The molecule `Cc1ccc(NC(=O)c2ccnc(C(F)(F)F)c2)cc1-c1cc(OCCO)nc(C2(CF)COC2)c1` [Example 57, N-(3-(2-(3-(fluoromethyl)oxetan-3-yl)-6-(2-hydroxyethoxy)pyridin-4-yl)-4-methylphenyl)-2-(trifluoromethyl)isonicotin-amide] displayed a half-maximal inhibitory concentration (IC50) of 0.149 nM.

In the case of `Cc1nc2cc(C3CCOCC3)cc(-c3cc(NC(=O)c4ccnc(C(C)(C)C#N)c4)ccc3C)c2[nH]1` [Example 223, 2-(2-cyanopropan-2-yl)-N-(4-methyl-3-(2-methyl-5-(tetrahydro-2H-pyran-4-yl)-1H-benzo[d]imidazol-7-yl)phenyl) isonicotinamide], the IC50 was 0.6 nM.

Consider `Cc1ncc(NC(=O)c2cccc(C(F)(F)F)c2)cc1-c1cc(C2(C)COC2)c(=O)[nH]n1` [Example 15, N-(6-methyl-5-(5-(3-methyloxetan-3-yl)-6-oxo-1,6-dihydropyridazin-3-yl)pyridin-3-yl)-3-(trifluoromethyl)benzamide], for which the IC50 is 1 nM. Compared with the last molecule, the IC50 is about 1.7-fold higher.

For `CCOc1nnc(-c2cc(NC(=O)c3cc(C(F)(F)F)c(Cl)cn3)ccc2C)cc1C1CCOCC1` [Example 228, 5-chloro-N-(3-(6-ethoxy-5-(tetrahydro-2H-pyran-4-yl)pyridazin-3-yl)-4-methylphenyl)-4-(trifluoromethyl) picolinamide], half-maximal inhibition (IC50) was put at 0.06 nM.

`CCOc1nnc(-c2cc(NC(=O)c3ccnc(C(F)(F)F)c3)cnc2C)cc1C1CCOCC1` [Example 236, N-(5-(6-ethoxy-5-(tetrahydro-2H-pyran-4-yl)pyridazin-3-yl)-6-methylpyridin-3-yl)-2-(trifluoromethyl) isonicotinamide] registered a half-maximal inhibitory concentration (IC50) of 0.3 nM.

For `CCOc1ncc(-c2cc(NC(=O)c3ccnc(C(C)(C)F)c3)cnc2C)cc1C1(F)CCOC1` (centres unmarked) [Example 298, N-(6′-ethoxy-5′-(3-fluorotetrahydro-furan-3-yl)-2-methyl-[3,3′-bipyridin]-5-yl)-2-(2-fluoropropan-2-yl)isonicotinamide], it took 2 nM to reach half-maximal inhibition (IC50).

`CCOc1nnc(-c2cc(NC(=O)c3cc(C(F)(F)F)ncn3)ccc2C)cc1C1CCOCC1` [Example 232]: the IC50 is 0.03 nM.

Consider `Cc1ccc(NC(=O)NCCC(C)(C)C)cc1-c1cc(OCCO)nc(C2CCOCC2)c1` [Example 319, 1-(3,3-dimethylbutyl)-3-(3-(2-(2-hydroxyethoxy)-6-(tetrahydro-2H-pyran-4-yl)pyridin-4-yl)-4-methylphenyl)urea], for which half-maximal inhibition (IC50) was put at 0.1 nM.

Take `CCOc1ncc(-c2cc(NC(=O)c3ccnc(C(C)(C)C#N)c3)cnc2C)cc1C1(CF)CCOC1` (centres unmarked) [Example 166, 2-(2-cyanopropan-2-yl)-N-(6′-ethoxy-5′-(3-(fluoromethyl)tetrahydrofuran-3-yl)-2-methyl-[3,3′-bipyridin]-5-yl)isonicotinamide]: the concentration for half-maximal inhibition (IC50) was 2 nM.

The molecule `Cc1ccc(NC(=O)c2cc(C(F)(F)F)ccn2)cc1-c1cc2c(c(C3CCOCC3)c1)OC(C)(CO)C(=O)N2` (centres unmarked) [Example 202, N-(3-(2-(hydroxymethyl)-2-methyl-3-oxo-8-(tetrahydro-2H-pyran-4-yl)-3,4-dihydro-2H-benzo[b][1,4]oxazin-6-yl)-4-methylphenyl)-4-(trifluoromethyl) picolinamide] gave an IC50 of 0.3 nM.

In the case of `Cc1ccc(NC(=O)c2ccnc(C(C)(F)F)c2)cc1-c1cc(OCCO)nc(C2(F)COC2)c1` [Example 54, 2-(1,1-difluoroethyl)-N-(3-(2-(3-fluorooxetan-3-yl)-6-(2-hydroxyethoxy)pyridin-4-yl)-4-methylphenyl)isonicotin-amide], 0.211 nM corresponded to half-maximal inhibition (IC50). This IC50 and that of the molecule before are within 1.5-fold of each other.

`Cc1ccc(NC(=O)c2cc(C(F)(F)F)cnn2)cc1-c1cc(OCCO)nc(C2CCOCC2)c1` [Example 258, N-(3-(2-(2-hydroxyethoxy)-6-(tetrahydro-2H-pyran-4-yl)pyridin-4-yl)-4-methylphenyl)-5-(trifluoromethyl) pyridazine-3-carboxamide] had an IC50 of 0.02 nM.

As to `Cc1ccc(NC(=O)c2cc(C(F)(F)F)c[nH]c2=O)cc1-c1cc(OCCO)nc(C2CCOCC2)c1` [Example 252, N-(3-(2-(2-hydroxyethoxy)-6-(terahydro-2H-pyran-4-yl)pyridin-4-yl)-4-methylphenyl)-2-oxo-5-(trifluoromethyl)-1,2-dihydropyridine-3-carboxamide], it took 4 nM to reach half-maximal inhibition (IC50).

Molecule `COc1ncc(-c2cc(NC(=O)c3cc(C(F)(F)F)cc(C(C)(C)N)n3)cnc2C)cc1C1(C(F)F)COC1` [Example 148, 6-(2-aminopropan-2-yl)-N-(5′-(3-(difluoromethyl)oxetan-3-yl)-6′-methoxy-2-methyl-[3,3′-bipyridin]-5-yl)-4-(trifluoromethyl)picolin-amide] had a concentration for half-maximal inhibition (IC50) of 9.2 nM.

Take `Cc1ccc(NC(=O)c2ccnc(Cl)c2)cc1-c1cc(OC[C@H](O)CO)nc(C2CCOCC2)c1` [Example 280, (R)-2-chloro-N-(3-(2-(2,3-dihydroxypropoxy)-6-(tetrahydro-2H-pyran-4-yl)pyridin-4-yl)-4-methylphenyl) isonicotinamide]: the IC50 stood at 0.07 nM.

`Cc1ccc(NC(=O)c2ccnc(C(F)(F)CF)c2)cc1-c1cc(OCCO)nc(C2CCOCC2)c1` [Example 268, N-(3-(2-(2-hydroxyethoxy)-6-(tetrahydro-2H-pyran-4-yl)pyridin-4-yl)-4-methylphenyl)-2-(1,1,2-trifluoroethyl) isonicotinamide]: inhibition was half-maximal at 0.02 nM (IC50).

Source of the values: patent US10167279B2 (NOVARTIS AG, priority 2014, dated 2019).
